# Source: PMC3461162 (British Journal of Cancer, 2012)
# Experiment: Plasma pharmacokinetics, non-compartmental analysis
# Type: in vivo, human
# Conditions: for AUC(0-t) / AUC / Cmax / Vd/F / half-life / Tmax: human, plasma, oral; for AUC(0-t): AUC0–12, Gmean (range); for Vd/F: Vss/F, Amean (range)
# [1] = following BID dosing, 10 mg BID solution
# [2] = following BID dosing, 20 mg BID solution
# [3] = following BID dosing, 40 mg BID solution
# [4] = following BID dosing, 40 mg BID tablet
# [5] = following BID dosing, 60 mg BID tablet
# [6] = following BID dosing, 90 mg BID tablet
# [7] = following BID dosing, 120 mg BID tablet
# [8] = 10 mg, single dose, 10 mg solution (n=5)
# [9] = 20 mg, single dose, 20 mg solution (n=3)
# [10] = 40 mg, single dose, 40 mg solution (n=6)
# [11] = 40 mg, single dose, 40 mg tablet (n=7)
# [12] = 60 mg, single dose, 60 mg tablet (n=7)
# [13] = 90 mg, single dose, 90 mg tablet (n=11)
# [14] = 120 mg, single dose, 120 mg tablet (n=10)
compound,measurement,setting,value
COc1ccc(-c2ccc3c(N4CCOC[C@@H]4C)nc(N4CCOC[C@@H]4C)nc3n2)cc1CO [AZD8055],Dose proportionality of exposure,"BID dosing, solution formulation (10–40 mg)",proportional increase in exposure
same,Dose proportionality of exposure,"BID dosing, tablet formulation (40–120 mg)",greater than proportional increase with increasing dose
same,"CLss/F, Amean (n) (range)",[1],439 (4) (352–521) l h^−1
same,"Cmin ss, Gmean (n) (range)",[1],0.114 (3) (0.057–0.189) ng ml^−1
same,"T c (temporal change, linearity factor), Gmean (n) (range)",[1],1.03 (4) (0.839–1.48)
same,"CLss/F, range only (Amean NC, n=2)",[2],NC (2) (268–426) l h^−1
same,"Cmin ss, range only (Gmean NC, n=1)",[2],NC (1) (0.228–0.228) ng ml^−1
same,"T c (temporal change, linearity factor), range only (Gmean NC, n=2)",[2],NC (2) (1.61–2.07)
same,"CLss/F, Amean (n) (range)",[3],369 (6) (278–492) l h^−1
same,"Cmin ss, Gmean (n) (range)",[3],0.370 (5) (0.162–0.821) ng ml^−1
same,"T c (temporal change, linearity factor), Gmean (n) (range)",[3],1.10 (6) (0.539–1.65)
same,"CLss/F, Amean (n) (range)",[4],465 (5) (148–906) l h^−1
same,"Cmin ss, Gmean (n) (range)",[4],0.959 (5) (0.294–2.71) ng ml^−1
same,"T c (temporal change, linearity factor), Gmean (n) (range)",[4],0.806 (5) (0.444–1.13)
same,"CLss/F, Amean (n) (range)",[5],483 (6) (92.9–1250) l h^−1
same,"T c (temporal change, linearity factor), Gmean (n) (range)",[5],1.30 (6) (0.525–2.50)
same,"CLss/F, Amean (n) (range)",[6],856 (4) (457–1630) l h^−1
same,"Cmin ss, Gmean (n) (range)",[6],0.543 (5) (0.177–3.18) ng ml^−1
same,"T c (temporal change, linearity factor), Gmean (n) (range)",[6],1.18 (4) (0.831–1.69)
same,"CLss/F, Amean (n) (range)",[7],283 (7) (68.2–494) l h^−1
same,"Cmin ss, Gmean (n) (range)",[7],3.54 (5) (1.40–41.1) ng ml^−1
same,"T c (temporal change, linearity factor), Gmean (n) (range)",[7],1.81 (7) (1.09–3.50)
same,AUC(0-t),[8],24.1 ng·h/mL
same,AUC,"10 mg, AUC, Gmean (range), single dose, 10 mg solution (n=5)",24.5 ng·h/mL
same,AUC,"10 mg, AUCss, Gmean (n) (range), following BID dosing, 10 mg BID solution",23 ng·h/mL
same,Cmax,"10 mg, Cmax ss, Gmean (n) (range), following BID dosing, 10 mg BID solution",17.3 ng/mL
same,Cmax,"10 mg, Cmax, Gmean (range), single dose, 10 mg solution (n=5)",16.8 ng/mL
same,Vd/F,[8],884 L
same,half-life,"10 mg, t1/2, Amean (range), single dose, 10 mg solution (n=5)",2.43 h
same,half-life,"10 mg, t1/2 ss, Amean (n) (range), following BID dosing, 10 mg BID solution",2.82 h
same,Tmax,"10 mg, tmax ss, Median (n) (range), following BID dosing, 10 mg BID solution",0.5 h
same,Tmax,"10 mg, tmax, Median (range), single dose, 10 mg solution (n=5)",0.5 h
same,AUC(0-t),[9],43.3 ng·h/mL
same,AUC,"20 mg, AUC, Gmean (range), single dose, 20 mg solution (n=3)",43.7 ng·h/mL
same,Cmax,"20 mg, Cmax, Gmean (range), single dose, 20 mg solution (n=3)",27 ng/mL
same,Vd/F,[9],1050 L
same,half-life,"20 mg, t1/2, Amean (range), single dose, 20 mg solution (n=3)",1.86 h
same,Tmax,"20 mg, tmax, Median (range), single dose, 20 mg solution (n=3)",0.5 h
same,AUC(0-t),[10],99.4 ng·h/mL
same,AUC(0-t),[11],124 ng·h/mL
same,AUC,"40 mg, AUC, Gmean (range), single dose, 40 mg solution (n=6)",101 ng·h/mL
same,AUC,"40 mg, AUC, Gmean (range), single dose, 40 mg tablet (n=7)",127 ng·h/mL
same,AUC,"40 mg, AUCss, Gmean (n) (range), following BID dosing, 40 mg BID solution",111 ng·h/mL
same,AUC,"40 mg, AUCss, Gmean (n) (range), following BID dosing, 40 mg BID tablet",101 ng·h/mL
same,Cmax,"40 mg, Cmax ss, Gmean (n) (range), following BID dosing, 40 mg BID solution",61.9 ng/mL
same,Cmax,"40 mg, Cmax ss, Gmean (n) (range), following BID dosing, 40 mg BID tablet",46.1 ng/mL
same,Cmax,"40 mg, Cmax, Gmean (range), single dose, 40 mg solution (n=6)",70.9 ng/mL
same,Cmax,"40 mg, Cmax, Gmean (range), single dose, 40 mg tablet (n=7)",72.3 ng/mL
same,Vd/F,[10],840 L
same,Vd/F,[11],762 L
same,half-life,"40 mg, t1/2, Amean (range), single dose, 40 mg solution (n=6)",2.65 h
same,half-life,"40 mg, t1/2, Amean (range), single dose, 40 mg tablet (n=7)",2.28 h
same,half-life,"40 mg, t1/2 ss, Amean (n) (range), following BID dosing, 40 mg BID solution",2.13 h
same,half-life,"40 mg, t1/2 ss, Amean (n) (range), following BID dosing, 40 mg BID tablet",3.04 h
same,Tmax,"40 mg, tmax ss, Median (n) (range), following BID dosing, 40 mg BID solution",0.25 h
same,Tmax,"40 mg, tmax ss, Median (n) (range), following BID dosing, 40 mg BID tablet",1 h
same,Tmax,"40 mg, tmax, Median (range), single dose, 40 mg solution (n=6)",0.37 h
same,Tmax,"40 mg, tmax, Median (range), single dose, 40 mg tablet (n=7)",1 h
same,AUC(0-t),[12],131 ng·h/mL
same,AUC,"60 mg, AUC, Gmean (range), single dose, 60 mg tablet (n=7)",136 ng·h/mL
same,AUC,"60 mg, AUCss, Gmean (n) (range), following BID dosing, 60 mg BID tablet",178 ng·h/mL
same,Cmax,"60 mg, Cmax ss, Gmean (n) (range), following BID dosing, 60 mg BID tablet",82.8 ng/mL
same,Cmax,"60 mg, Cmax, Gmean (range), single dose, 60 mg tablet (n=7)",57.1 ng/mL
same,Vd/F,[12],1770 L
same,half-life,"60 mg, t1/2, Amean (range), single dose, 60 mg tablet (n=7)",2.37 h
same,half-life,"60 mg, t1/2 ss, Amean (n) (range), following BID dosing, 60 mg BID tablet",2.81 h
same,Tmax,"60 mg, tmax ss, Median (n) (range), following BID dosing, 60 mg BID tablet",1 h
same,Tmax,"60 mg, tmax, Median (range), single dose, 60 mg tablet (n=7)",0.5 h
same,Cmax,90 mg,70.1 ng/mL
same,half-life,90 mg,2.36 h
same,AUC(0-t),[13],130 ng·h/mL
same,AUC,"90 mg, AUC, Gmean (range), single dose, 90 mg tablet (n=11)",134 ng·h/mL
same,AUC,"90 mg, AUCss, Gmean (n) (range), following BID dosing, 90 mg BID tablet",122 ng·h/mL
same,Cmax,"90 mg, Cmax ss, Gmean (n) (range), following BID dosing, 90 mg BID tablet",70 ng/mL
same,Vd/F,[13],2450 L
same,half-life,"90 mg, t1/2 ss, Amean (n) (range), following BID dosing, 90 mg BID tablet",2.63 h
same,Tmax,"90 mg, tmax ss, Median (n) (range), following BID dosing, 90 mg BID tablet",0.5 h
same,Tmax,"90 mg, tmax, Median (range), single dose, 90 mg tablet (n=11), MTD",0.5 h
same,AUC(0-t),[14],280 ng·h/mL
same,AUC,"120 mg, AUC, Gmean (range), single dose, 120 mg tablet (n=10)",294 ng·h/mL
same,AUC,"120 mg, AUCss, Gmean (n) (range), following BID dosing, 120 mg BID tablet",501 ng·h/mL
same,Cmax,"120 mg, Cmax ss, Gmean (n) (range), following BID dosing, 120 mg BID tablet",355 ng/mL
same,Cmax,"120 mg, Cmax, Gmean (range), single dose, 120 mg tablet (n=10)",177 ng/mL
same,Vd/F,[14],1370 L
same,half-life,"120 mg, t1/2, Amean (range), single dose, 120 mg tablet (n=10)",3.14 h
same,half-life,"120 mg, t1/2 ss, Amean (n) (range), following BID dosing, 120 mg BID tablet",2.45 h
same,Tmax,"120 mg, tmax ss, Median (n) (range), following BID dosing, 120 mg BID tablet",0.5 h
same,Tmax,"120 mg, tmax, Median (range), single dose, 120 mg tablet (n=10)",0.5 h
same,half-life,"mean t1/2, single and multiple doses across all cohorts",1.7 to 3.1 h
same,Tmax,"median tmax, single and multiple doses across all cohorts",~0.5 h
same,Oral bioavailability,oral dosing in patients,orally bioavailable
same,"tmax, Median (range)","single dose, 90 mg tablet (n=11), MTD",1.00 (0.25–4) h
same,Dose proportionality of exposure,"single dosing, all cohorts",proportional increases in exposure with increasing dose
